Like-named read-outs stand apart in the source and are kept apart here.

The source of these data is US6503545B1 (Brandeis University, priority 1999, dated 2003).

For data set [1] the following is noted: cited from earlier work; for Vit. E/Chol. ratio Incr.: above basal fasting ratio.
For data set [2] the following is noted: per 1 mg, National Formulary; cited from earlier work.
The conditions of data set [3]: 400 IU daily soft gel capsule, six years, 601 subjects; cited from earlier work.
For data set [4], the system named is LDL. Conditions: gel-capsule, ex vivo lag time; cited from earlier work.
For data set [5] the following is noted: 150 mg natural and 150 mg synthetic daily in soft gelatin capsule, ten days; cited from earlier work.
The conditions of data set [6]: cited from earlier work.
For data set [7] the following is noted: in vivo; cited from earlier work.
Data set [8] can be described thus: Stability of vitamin E in fortified milks and orange juice during refrigerated storage. In kind it is physicochemical. Particulars: 2-3 weeks in refrigerated milk. From the text:
The stability of all-rac E, oil was also monitored in regular 1% milkfat-containing milk (abbreviated “regular milk”). […] Although the starting levels of vitamin E were not identical in the beverages studied, all products were stored identically (see above) up to the time of the vitamin assay. Since the nominal shelf-life for milk is two weeks, and for refrigerated orange juice is four weeks, comparisons of vitamin E losses were made after three weeks storage.

The nature of data set [9]: Loss of vitamin E during milk processing (pasteurization). In kind it is physicochemical. Particulars: heating, e.g. pasteurization. The procedure: In addition, as Applicant has described, normal processing of milk and other food products commonly includes heating, e.g., pasteurization.
Preparation of Vitamin E-Fortified Milks: Pasteurized non-fat (skim) milk containing 2,000 I.U. per quart vitamin A palmitate and 400 I.U. per quart vitamin D2 was prepared by H.P. Hood, Inc. (Chelsea Mass.). […] Fortified cream or oil was then blended with non-fortified skim milk to make three vitamin E-fortified milks containing fat (see below). […] Milk processing losses of vitamin E were measured and were compensated, by including an excess of vitamin E in the each milk formulation equal to the measured processing loss. Four milks were formulated as follows: […]
Preparation of Vitamin E-Fortified Milks: Preparation of milks, and the packaging and storage of milks by H.P. Hood, Inc. (Chelsea Mass.) were carried out as described for vitamin E-fortified milks in the first clinical study (see milk #3), except that the new milk (milk #21) was fortified with only 15 IU of all-rac-α-tocopherol acetate per serving. A portion of the milk batch was prepared without vitamins A and D (milk #20).

The conditions of data set [10]: supplements greater than 100 IU per day, 6 years, elderly; cited from earlier work.
The conditions of data set [11]: ingestion of 1200 IU per day; cited from earlier work.

In the case of `CC(=O)Oc1c(C)c(C)c2c(c1C)CCC(C)(CCCC(C)CCCC(C)CCCC(C)C)O2` (racemic) [all-rac-α-tocopherol acetate], the “Plasma Vit E Increase” value in [1] (capsules 25 IU/day, above basal fasting level) is 19%. Moreover, the “Vit. E/Chol. ratio Incr.” value is recorded as 35% in data set [1] (capsules 100 IU/day), 65% in data set [1] (capsules 200 IU/day) and 115% in data set [1] (capsules 400 IU/day). Also, the “specific activity (IU per milligram)” value in data set [2] is reported as 1.00 IU. Further, in [3], the “average increase in plasma vitamin E” value is on record as 83%.

For `Cc1c(C)c2c(c(C)c1O)CCC(C)(CCCC(C)CCCC(C)CCCC(C)C)O2` (racemic) [all-rac-α-tocopherol], in data set [2], the “specific activity (IU per milligram)” value is 1.10 IU. The “minimum dose which significantly decreases the susceptibility of LDL to oxidation” value in data set [4] is 400 IU/per day.

In the case of `CC(=O)Oc1c(C)c(C)c2c(c1C)CC[C@@](C)(CCC[C@H](C)CCC[C@H](C)CCCC(C)C)O2` [RRR-α-tocopherol acetate], the “specific activity (IU per milligram)” value in data set [2] is 1.36 IU. Further, the “competitive bioavailability in plasma versus all-rac-α-tocopherol acetate” value in [5] is listed as “up to two-fold greater”.

Take `Cc1c(C)c2c(c(C)c1O)CC[C@@](C)(CCC[C@H](C)CCC[C@H](C)CCCC(C)C)O2` [RRR-α-tocopherol]: in data set [2], the “specific activity (IU per milligram)” value is on record as 1.49 IU. The “plasma vitamin E level, elevated” value in data set [6] (400-800 IU daily dose, basal 34.2 μmol/L) was 58 µmol/L. In addition, the “average elevation in the plasma vitamin E level above the basal fasting level” value in [6] (400-800 IU daily dose) was 70%. Moreover, in [6] (400 IU once per day in capsules, patients with coronary atherosclerosis), the “reduction of the risk of non-fatal heart attacks” value is on record as 77%.

For the compound `Cc1c(C)c2c(c(C)c1O)CC[C@@](C)(CCC[C@H](C)CCC[C@H](C)CCCC(C)C)O2` [α-tocopherol], in data set [7], the “supplemented dose excreted in the feces” value is reported as 80-90%.

As to vitamin E, the “shelf-life loss of vitamin E” value in data set [8] is on record as “about 15%”. In addition, in data set [9], the “loss of vitamin E associated with processing, generally” value is given as 20-25% and the “loss of vitamin E associated with processing, typically” value is 10-30%. In data set [10], the “reduction of CHD mortality” value is reported as 41-47%, the “reduction of all-cause mortality” value was 27-34% and the “reduction of cancer mortality” value is recorded as 22-23%. Besides, the adverse effects result in data set [11] is given as “no adverse effects have been observed”.
